This is an account of results in US20130224151A1, “Use of FAAH Inhibitors for Treating Abdominal, Visceral and Pelvic Pain” (UNITED STATES OF AMERICA, priority 2010, published 2013).

Assay type in all cases: in vivo, rat
For experiment [1], the system named is Female Wistar rats. Description: Basal sensitivity to colorectal distension model. To be noted: 30 mg/kg by oral gavage; CRD measured 2 hrs later; 0-60 mmHg.
The subject of experiment [2] is Female Wistar rats. The experiment can be described thus: Partial restraint stress-induced hyperalgesia model. Particulars: 30 mg/kg orally, 1 hr 15 min into 2 hr PRS; CRD 2 hrs later; 45 and 60 mmHg. How it is done:
Female Wistar rats surgically prepared for electromyography as described in Example 1 were used to evaluate the effects of the FAAH inhibitors (a) compound A or (b) compound B, on colorectal sensitivity and compliance after a 2 hour partial restraint stress session.
Partial restraint stress (PRS), a relatively mild stress, was induced as previously described (Morteau et al. Dig. Dis. Sci. 1994: 39:1239-48; “Guanylate cyclase C-mediated antinociceptive effects of linaclotide in rodent models of visceral pain”, Eutamene H, Bradesi S, Larauche M, Theodorou V, Beaufrand C, Ohning G, Fioramonti J, Cohen M, Bryant A P, Kurtz C, Currie M G, Mayer E A, Bueno L, Neurogastroenterology and motility —2010 Volume: 22 p. 312-322; “Stress-induced changes in intestinal transit in the rat: a model for irritable bowel syndrome”, Williams C L, Villar R G, Peterson J M, Burks T F, Gastroenterology—1988 p. 611-21). Female rats were lightly anesthetized with diethyl ether and their shoulders, upper forelimbs and thoracic trunk were wrapped in a confining harness of paper tape to restrict, but not prevent body movements. Control sham-stress animals were anesthetized but not wrapped. […]
Rats were treated orally with compound A (30 mg/kg in DMSO/cremophor/isotonic saline (1:1:8 v:v:v), n=8), or vehicle only (DMSO/cremophor/isotonic saline (1:1:8 v:v:v), 1 mL, n=9) with or without 2 hour PRS sessions. The number of abdominal contractions was recorded by electromyography per 5-minute period (y axis) for each distension pressure of 0 mmHg, 15 mmHg, 30 mmHg, 45 mmHg and 60 mmHg (x axis); the ? symbols represent the results for the control+vehicle group (n=9); the symbols ? represent the results for the stress+vehicle group (n=9); the symbols ? represent the results for the stress+compound A group (n=8). Data are mean values with SEM.
Rats were treated orally with compound B (30 mg/kg in DMSO/cremophor/isotonic saline (1:1:8 v:v:v), n=9), or vehicle only (DMSO/cremophor/isotonic saline (1:1:8 v:v:v), 1 mL, n=9) with or without 2 hour PRS sessions. The number of abdominal contractions was recorded by electromyography per 5-minute period (y axis) for each distension pressure of 0 mmHg, 15 mmHg, 30 mmHg, 45 mmHg and 60 mmHg (x axis); the symbols ? represent the results for the control+vehicle group (n=9); the symbols ? represent the results for the stress+vehicle group (n=9); and the symbols ? represent the results for the stress+compound B group (n=9). Data are mean values with SEM.
The effect of FAAH inhibitor URB597 was tested at 3 mg/kg and 10 mg/kg in the PRS model of visceral hyperalgesia essentially as described in Examples 1 and 2. URB597 was formulated as a suspension in vehicle [DMSO/cremophor/isotonic saline (1:1:8 v:v:v)]. […]

The subject of experiment [3] is Male Sprague Dawley (SD) rats. The experiment can be described thus: Cortagine-induced visceral hypersensitivity to colorectal distension. Particulars: for antihyperalgesic effects in the cortagine model of visceral pain: summary statement referring to Example 3. From the text:
Male Sprague Dawley (SD) rats (250-275 g, Harlan Labs, Indianapolis, Ind.) were kept under standard conditions of humidity and temperature and a 12-hour light/dark cycle (lights on 6.00 a.m.). Animals were group housed and had access to food ad libitum. Prior to the start of studies, animals were acclimatized to handling and administration of treatments (oral syringe feeding and subcutaneous injection). At the end of the experiments, animals were sacrificed by CO2 gas inhalation followed by thoracotomy or isoflurane anesthesia followed by decapitation with appropriate approved animal protocols.
On the day of the experiments, rats were injected intraperitoneally (IP) with cortagine (10 μg/kg, 0.8 ml/kg in DMSO/cremophor/isotonic saline (1:1:8 v:v:v). Cortagine, a selective corticotropin releasing factor receptor 1 (CRF1) agonist, prepared as described previously (Rivier et al. J. Med. Chem. 2007: 50:1668-1674), was stored in a powder form at −80° C. and prepared in sterile water (12.5 μg/ml) immediately before use. This dose had previously been established to show a significant increase in defecation, induction of diarrhea and increase in colonic motility, permeability and visceral pain in rats. (Larauche et al. Am. J. Physiol. Gastrointest. Liver Physiol. 2009: 297:G215-G227)
FAAH inhibitor compounds URB597 [3′-(aminocarbonyl)biphenyl-3-yl cyclohexyl carbamate], compound A and compound B were formulated as suspensions in DMSO/cremophor/isotonic saline (1:1:8 v:v:v). The concentration of the respective dosing FAAH inhibitor compound suspensions were 6 mg/ml for 30 mg/kg dose of compound A or compound B; 2 mg/ml for the 10 mg/kg dose of compound B; and 1.5 mg/ml for the 3 mg/kg dose of URB597. Compound A, compound B or vehicle treatment was administered to rats by per os (PO) route at dose-volume of 5 ml/kg. URB597 treatment was administered to rats by subcutaneous (SC) route at dose volume of 2 ml/kg. The vehicle for the PO route was DMSO/cremophor/isotonic saline (1:1:8 v:v:v). Vehicle (PO), URB597 (SC), compound A and compound B (PO) were administered to non-fasted rats, restrained by hand. The regimen of administration of URB597, compound A and compound B involved one delivery (PO or SC) performed 120 min before IP injection of cortagine.
Visceral pain was assessed using a non-invasive pressure transducer system referred to as “sensor balloon” as previously described (Larauche et al. Am. J. Physiol. Gastrointest. Liver Physiol. 2009: 297:G215-G227; Ness et al. Brain Res. 1988: 450:153-169). Briefly, in adult non-fasted SD rats, a 4-5 cm “sensor balloon” lubricated with surgical lubricant (Surgilube, Fougera, Melville) was inserted intra-anally under brief isoflurane anesthesia. The “sensor balloon” was positioned such that its distal end was 1 cm proximal to the anal verge and secured in place by tapping the balloon catheter to the tail. Rats were placed individually in Boolman's cage and allowed to recover from anesthesia and habituation. The colorectal procedure was performed using the Distender Series Ilir dual barostat (G&J Electronics Inc, Toronto, Ontario). The CRD protocol consisted of 2 CRD at 60 mmHg to unfold the balloon followed by 2 sets of CRD at 10, 20, 40 and 60 mmHg, 20 s duration, 4-min inter-stimulus interval. The intra-luminal colonic pressure (ICP) was recorded for 20 s before, during and after termination of CRD. […]

The mark [4] stands for this setting: 30 mg/kg PO 2 h before cortagine.
[5] abbreviates: 30 mg/kg PO 2 h before cortagine 10 μg/kg IP, 40 and 60 mmHg, did not reach statistical significance.
Where [6] appears, read: 30 mg/kg PO 2 h before cortagine, n=11.
[7] abbreviates: 10 mg/kg PO 2 h before cortagine, normalized to baseline VMR at 60 mmHg.

“Also recorded” adds a separate entry of the source.

Take `COc1ccc2c(c1)c(C(=O)C(=O)Nc1cccc(Cl)c1)c(C)n2Cc1ccc(Cl)cc1` [compound A, 2-(1-(4-chlorobenzyl)-5-methoxy-2-methyl-1H-indol-3-yl)-N-(3-chlorophenyl)-2-oxoacetamide]: the “basal sensitivity to colorectal distension (number of abdominal contractions per 5-minute period)” value with Female Wistar rats [1] is “neither compound A nor compound B alters basal sensitivity”. Besides, the “abdominal contractions versus stress+vehicle control” value in the experiment on Female Wistar rats [2] was “non-significant trend towards attenuation of abdominal contractions; also recorded: exhibit antihyperalgesic effects”. In addition, in experiment [3] (setting [4]), the “rats with increased VMR between 0 and 50% at 60 mmHg” value worked out at 18%; the “rats with increased VMR between 51 and 100% at 60 mmHg” value is on record as 27%; the “rats with increased VMR over 101% at 60 mmHg” value is recorded as 9%. Further, in experiment [3] (setting [5]), the “effect on cortagine-induced visceral hypersensitivity to CRD” value (“effect … to CRD” below) is recorded as “trend to decrease the cortagine-induced visceral hypersensitivity; also recorded: trend to reduce cortagine-induced visceral hypersensitivity”. Moreover, in experiment [3] (setting [6]), the “rats presenting an increased VMR over baseline (% hypersensitive rats) at 60 mmHg” value is 55%. Besides, the “antihyperalgesic effects in the cortagine model of visceral pain” value in experiment [3] is reported as “exhibit antihyperalgesic effects”.

For `COc1cc(NC(=O)C(=O)c2c(C)n(Cc3ccc(Cl)cc3)c3ccc(C)cc23)ccn1` [compound B, 2-(1-(4-chlorobenzyl)-2,5-dimethyl-1H-indol-3-yl)-N-(2-methoxypyridin-4-yl)-2-oxoacetamide], in the experiment on Female Wistar rats [1], the “basal sensitivity to colorectal distension (number of abdominal contractions per 5-minute period)” value is on record as “neither compound A nor compound B alters basal sensitivity”. The “abdominal contractions versus stress+vehicle control” value with Female Wistar rats [2] is on record as “significantly reduced abdominal contractions; also recorded: exhibit antihyperalgesic effects”. In addition, the “% hypersensitive rats at 40 mmHg” value in experiment [3] (10 mg/kg PO 2 h before cortagine) is 36%. Further, the “effect … to CRD” value in experiment [3] (10 mg/kg PO 2 h before cortagine 10 μg/kg IP) was “abolished the visceral hypersensitivity; also recorded: prevented the visceral hypersensitivity”. For the same compound, the “rats presenting a decrease in VMR compared to baseline at 60 mmHg” value in experiment [3] (10 mg/kg PO 2 h before cortagine, n=11) came out at 64%. In addition, in experiment [3] (10 mg/kg PO 2 h before cortagine, n=11, all increases between 0 and 50%), the “rats presenting an increased VMR over baseline (% hypersensitive rats) at 60 mmHg” value came to 36%. In addition, in experiment [3] (setting [7]), the “VMR to CRD at 40 mmHg” value worked out at 84.74±13.54% and the “VMR to CRD at 60 mmHg” value was found to be 87.75±10.96%. In addition, in experiment [3] (setting [4]), the “rats with increased VMR between 0 and 50% at 60 mmHg” value was found to be 45%; the “rats with increased VMR over 101% at 60 mmHg” value is on record as 9%. For the same compound, the “effect … to CRD” value in experiment [3] (setting [5]) was “trend to dampen the development of the visceral hypersensitivity; also recorded: trend to reduce cortagine-induced visceral hypersensitivity”. For the same compound, in experiment [3] (setting [6]), the “rats presenting an increased VMR over baseline (% hypersensitive rats) at 60 mmHg” value stood at 55%. Further, the “antihyperalgesic effects in the cortagine model of visceral pain” value in experiment [3] is listed as “exhibit antihyperalgesic effects”.
